test system: transgenic mice that express both human CETP and human apolipoprotein A-1; test: Assay of plasma lipids in vivo (HDL cholesterol elevation); details: single oral dose 30 mg/kg; 8 hr after dosing; serum HDL cholesterol relative to control; human CETP/human apoA-1 transgenic mice
Experimental: Assay of Plasma Lipids In Vivo
Activity of compounds of this invention in vivo can be determined by comparing the level of elevation of HDL cholesterol relative to control by a given amount of a compound in a CETP-containing animal species. A strain of transgenic mice that express both human CETP and human apolipoprotein A-1 (Taconic, Germantown, N.Y.) is used to test compounds of this invention. Test compounds are administered once orally in selected aqueous or oil based vehicles. At various times after dosing, ranging from 4 h to 24 h, blood is obtained. Blood is allowed to clot and serum is obtained by centrifugation. HDL cholesterol levels in the serum is determined by HDL-C plus reagents (Roche/Hitachi, Indianapolis, Ind.) with a clinical chemistry analyzer (Roche/Hitachi, Indianapolis, Ind.). Additional serum lipids can be analyzed by enzymatic methods. Lipids in the VLDL, LDL and HDL fractions are analyzed by enzymatic methods after precipitation or size exclusion chromatography.

Row | Structure (SMILES) | % HDL cholesterol increase [%]
1 | CCC1CC(N(Cc2cc(C(F)(F)F)cc(C(F)(F)F)c2)c2nnn(C)n2)c2nc(OC)ccc2N1C(=O)OC(C)C (racemic) [Example 8, (+/−)-cis-4-[(3,5-Bis-trifluoromethyl-benzyl)-2-methyl-2H-tetrazol-5-yl)-amino]-2-ethyl-6-methoxy-3,4-dihydro-2H-[1,5]naphthyridine-1-carboxylic acid isopropyl ester] | 313
2 | CC(C)OC(=O)N1c2ccc(C(F)(F)F)nc2C(N(Cc2cc(C(F)(F)F)cc(C(F)(F)F)c2)c2nnn(C)n2)CC1C1CC1 (racemic) [Example 52, (+/−)-cis-4-[(3,5-Bis-trifluoromethyl-benzyl)-(2methyl-2H-tetrazole-5-yl)-amino]-2-cyclopropyl-6-trifluoromethyl-3,4-dihydro-2H-[1,5]naphthyridine-1-carboxylic acid isopropyl ester] | 66
3 | CC[C@H]1C[C@@H](N(Cc2cc(C(F)(F)F)cc(C(F)(F)F)c2)c2nnn(CCO)n2)c2nc(C(F)(F)F)ccc2N1C(=O)OC(C)C (stereo in doubt) [Example 18, (2S,4R)-4-[(3,5-Bis-trifluoromethyl-benzyl)-[2-(2-hydroxy-ethyl)-2H-tetrazol-5-yl)-amino]-2-ethyl-6-trifluoromethyl-3,4-dihydro-2H-[1,5]naphthyridine-1-carboxylic acid isopropyl ester] | 187
4 | CC[C@@H]1C[C@H](N(Cc2cc(C(F)(F)F)cc(C(F)(F)F)c2)c2nnn(C)n2)c2nc(C(F)(F)F)ccc2N1C(=O)OC(C)C [Example 11] | 134
5 | CC[C@@H]1C[C@H](N(Cc2cc(C(F)(F)F)cc(C(F)(F)F)c2)c2nnn(CCN)n2)c2nc(C(F)(F)F)ccc2N1C(=O)OC(C)C [Example 15, (2R,4S)-cis-4-[[2-(2-Amino-ethyl)-2H-tetrazol-5-yl]-(3,5-bis-trifluoromethyl-benzyl)-amino]-2-ethyl-6-trifluoromethyl-3,4-dihydro-2H-[1,5]naphthyridine-1-carboxylic acid isopropyl ester] | 91
